From paper PMC5681660, “Reduced hepatitis B and D viral entry using clinically applied drugs as novel inhibitors of the bile acid transporter NTCP” (Scientific Reports, 2017)
Counter-ions that a name gives are not always drawn.

Target: T1, human NTCP (Homo sapiens, UniProt Q14973)
T1 sequence (Q14973 1-349): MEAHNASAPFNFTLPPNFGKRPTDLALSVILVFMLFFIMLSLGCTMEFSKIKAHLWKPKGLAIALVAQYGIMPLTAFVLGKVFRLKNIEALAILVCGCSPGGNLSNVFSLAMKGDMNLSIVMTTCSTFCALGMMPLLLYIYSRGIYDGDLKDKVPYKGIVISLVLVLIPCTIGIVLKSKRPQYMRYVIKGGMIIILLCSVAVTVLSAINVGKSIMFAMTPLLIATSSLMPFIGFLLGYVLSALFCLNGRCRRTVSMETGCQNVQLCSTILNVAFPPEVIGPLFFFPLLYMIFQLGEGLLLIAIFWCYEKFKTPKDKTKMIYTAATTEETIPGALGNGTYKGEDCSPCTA
Assay: Screening taurocholate uptake assay (96-well, [14C]taurocholate, 10 µM drug)
Conditions: for B-score functional assay: screening taurocholate uptake, 10 µM drug

[1] = combined ranking of functional and binding screening assays
[2] = ranking over the functional and the binding screening assay

Row | Compound | Ranking score [1] | B-score functional assay | Ranking score [2] | B-score functional assay (B-score)
1 | CO[C@H]1/C=C/O[C@@]2(C)Oc3c(C)c(O)c4c(O)c(c5c(nc6cc(C)ccn65)c4c3C2=O)NC(=O)/C(C)=C\C=C\[C@H](C)[C@H](O)[C@@H](C)[C@@H](O)[C@@H](C)[C@H](OC(C)=O)[C@@H]1C [Rifaximin] | 627.999 | -0.408 | – | –
2 | CCN(C)C(=O)Oc1cccc([C@H](C)N(C)C)c1 [Rivastigmine] | 642.937 | -0.006 | – | –
3 | CS(=O)(=O)c1ccc(C2=C(c3ccccc3)C(=O)OC2)cc1 [Rofecoxib] | – | 1.027 | 212.386 | –
4 | CN(CCOc1ccc(CC2SC(=O)NC2=O)cc1)c1ccccn1.Cl (centres unmarked) [Rosiglitazone Hydrochloride] | – | -7.292 | 31.1127 | –
5 | CC[C@H]1OC(=O)[C@H](C)[C@@H](O[C@H]2C[C@@](C)(OC)[C@@H](O)[C@H](C)O2)[C@H](C)[C@@H](O[C@@H]2O[C@H](C)C[C@H](N(C)C)[C@H]2O)[C@](C)(O)C[C@@H](C)/C(=N\OCOCCOC)[C@H](C)[C@@H](O)[C@]1(C)O [Roxithromycin] | – | 1.396 | 275.763 | –
6 | CN1CCN(c2c(F)cc3c(=O)c(C(=O)O)cn4c3c2SCC4)CC1 [Rufloxacin] | 471.137 | -0.276 | – | –
7 | CC(C)(C)NCC(O)c1ccc(O)c(CO)c1 (centres unmarked) [Salbutamol] | – | 1.838 | 275.042 | –
8 | Br.C[N+]1([O-])[C@@H]2CC(OC(=O)[C@H](CO)c3ccccc3)C[C@H]1[C@@H]1O[C@@H]12 (some centres unmarked) [Scopolamin-N-oxide hydrobromide] | – | -2.352 | 208.216 | –
9 | CN1[C@@H]2CC(OC(=O)[C@H](CO)c3ccccc3)C[C@H]1[C@@H]1O[C@@H]12.Cl (some centres unmarked) [Scopolamine hydrochloride] | 577.314 | 0.343 | – | –
10 | Cc1ncc([N+](=O)[O-])n1CC(C)O (centres unmarked) [Secnidazole] | 548.521 | -0.391 | – | –
11 | C#CCN(C)[C@H](C)Cc1ccccc1 [Selegiline hydrochloride] | 462.99 | -1.141 | – | –
12 | NCCc1c[nH]c2ccc(O)cc12 [Serotonin hydrochloride] | – | 0.952 | 107.778 | –
13 | CC(C)CC(N(C)C)C1(c2ccc(Cl)cc2)CCC1.Cl (centres unmarked) [Sibutramine HCl] | – | -0.386 | 211.232 | –
14 | C[C@H](Cc1cc2c(c(C(N)=O)c1)N(CCCO)CC2)NCCOc1ccccc1OCC(F)(F)F [Silodosin] | 510.413 | 1.072 | – | –
15 | C[C@@H]1CN(c2c(F)c(N)c3c(=O)c(C(=O)O)cn(C4CC4)c3c2F)C[C@H](C)N1 [Sparfloxacin] | – | -2.411 | 231.849 | –
16 | CN[C@@H]1[C@H](O)[C@H](NC)[C@H]2O[C@@]3(O)C(=O)C[C@@H](C)O[C@H]3O[C@@H]2[C@H]1O.Cl.Cl [Spectinomycin dihydrochloride] | – | -0.865 | 126.98 | –
17 | O=C(CCCN1CCC2(CC1)C(=O)NCN2c1ccccc1)c1ccc(F)cc1 [Spiperone] | 571.731 | -0.689 | – | –
18 | [H]/N=C(/N)N[C@H]1[C@H](O)[C@@H](O)[C@H](O[C@@H]2O[C@@H](C)[C@](O)(C=O)[C@H]2O[C@@H]2O[C@@H](CO)[C@H](O)[C@@H](O)[C@@H]2NC)[C@@H](N/C(N)=N\[H])[C@@H]1O [Streptomycin sulfate] | – | 1.326 | 115.983 | –
19 | O=C(O)CCC(=O)Nc1ccc(S(=O)(=O)Nc2nccs2)cc1 [Succinylsulfathiazole] | – | -0.075 | 258.147 | –
20 | Nc1ccc(S(=O)(=O)NC(=O)c2ccccc2)cc1 [Sulfabenzamide] | 563.848 | 0.164 | – | –
21 | CC(=O)[N-]S(=O)(=O)c1ccc(N)cc1.O.[Na+] [Sulfacetamide sodic hydrate] | – | -0.444 | 277.153 | –
22 | Nc1ccc(S(=O)(=O)Nc2ccc(Cl)nn2)cc1 [Sulfachloropyridazine] | 530.669 | 0.615 | – | –
23 | COc1cnc(NS(=O)(=O)c2ccc(N)cc2)nc1 [Sulfameter] | 466.613 | -1.201 | – | –
24 | CC1=C(CC(=O)O)c2cc(F)ccc2/C1=C\c1ccc([S+](C)[O-])cc1 (centres unmarked) [Sulindac] | – | -1.878 | 109.727 | –
25 | CC(C(=O)O)c1ccc(C(=O)c2cccs2)cc1 (centres unmarked) [Suprofen] | 554.797 | -0.917 | – | –
26 | CCCCC1(COC(=O)CCC(=O)O)C(=O)N(c2ccccc2)N(c2ccccc2)C1=O [Suxibuzone] | 1138 | – | – | 1.433

Row | Compound | Ranking score [1] | B-score functional assay | Ranking score [2] | B-score functional assay (B-score)
27 | C[C@]1(Cn2ccnn2)[C@H](C(=O)O)N2C(=O)C[C@H]2S1(=O)=O [Tazobactam] | 613.948 | 2.889 | – | –
28 | O=c1[nH]c(=O)n(C2CCCO2)cc1F (centres unmarked) [Tegafur] | 518.446 | -0.939 | – | –
29 | CCCc1nc2c(C)cc(-c3nc4ccccc4n3C)cc2n1Cc1ccc(-c2ccccc2C(=O)O)cc1 [Telmisartan] | – | -4.106 | 165.804 | –
30 | CN1C(C(=O)Nc2ccccn2)=C(O)c2sccc2S1(=O)=O [Tenoxicam] | 641.502 | 0.141 | – | –
31 | COc1cc2nc(N3CCN(C(=O)C4CCCO4)CC3)nc(N)c2cc1OC (centres unmarked) [Terazosin hydrochloride] | 497.689 | -0.092 | – | –
32 | CC(C)N1CCN(c2ccc(OCC3COC(Cn4cncn4)(c4ccc(Cl)cc4Cl)O3)cc2)CC1 (centres unmarked) [Terconazole] | 502.144 | -0.057 | – | –
33 | O.O=C1C(O)=C(O)C(=O)C(O)=C1O [Tetrahydroxy-1,4-quinone hydrate] | 603.838 | -0.017 | – | –
34 | c1ccc(C2CN3CCSC3=N2)cc1 (centres unmarked) [Tetramisole hydrochloride] | – | -2.419 | 250.531 | –
35 | Cn1cnc2c1c(=O)[nH]c(=O)n2C [Theobromine] | 527.693 | -0.75 | – | –
36 | CS(=O)(=O)c1ccc([C@@H](O)[C@@H](CO)NC(=O)C(Cl)Cl)cc1 [Thiamphenicol] | 545.996 | -0.089 | – | –
37 | COc1c(O[C@@H]2O[C@H](CO)[C@@H](O)[C@H](O)[C@H]2O)cc2c(c1OC)-c1ccc(SC)c(=O)cc1[C@@H](NC(C)=O)CC2 [Thiocolchicoside] | – | -3.578 | 64.2729 | –
38 | CSc1ccc2c(c1)N(CCC1CCCCN1C)c1ccccc1S2 (centres unmarked) [Thioridazine hydrochloride] | – | 0.02 | 203.814 | –
39 | C=C(NC(=O)C(=C)NC(=O)c1csc(C2=N[C@@H]3c4csc(n4)[C@H]4NC(=O)c5csc(n5)[C@H]([C@](C)(O)[C@@H](C)O)NC(=O)[C@H]5CSC(=N5)/C(=C/C)NC(=O)[C@H]([C@@H](C)O)NC(=O)c5csc(n5)[C@]3(CC2)NC(=O)[C@H](C)NC(=O)C(=C)NC(=O)[C@H](C)NC(=O)[C@H]([C@@H](C)CC)N[C@@H]2C=Cc3c([C@H](C)O)cc(nc3[C@H]2O)C(=O)O[C@@H]4C)n1)C(N)=O [Thiostrepton] | – | -0.068 | 23.8747 | –
40 | CCCCCCCCCCCCCCCC[N+](C)(C)CCN(Cc1ccc(OC)cc1)c1ncccn1 [Thonzonium bromide] | – | -2.235 | 50.5173 | –
41 | CC1(C)S[C@@H]2[C@H](NC(=O)[C@H](C(=O)O)c3ccsc3)C(=O)N2[C@H]1C(=O)O [Ticarcillin sodium] | – | -0.726 | 110.132 | –
42 | CCS(=O)(=O)CCn1c([N+](=O)[O-])cnc1C [Tinidazole] | 478.029 | -0.469 | – | –
43 | NC[C@H]1O[C@H](O[C@H]2[C@H](O)[C@@H](O[C@H]3O[C@H](CO)[C@@H](O)[C@H](N)[C@H]3O)[C@H](N)C[C@@H]2N)[C@H](N)C[C@@H]1O [Tobramycin] | 498.515 | -0.213 | – | –
44 | CCOC(=O)NNc1nncc2ccccc12 [Todralazine hydrochloride] | – | -1.372 | 269.251 | –
45 | Cc1ccc(S(=O)(=O)NC(=O)NN2CCCCCC2)cc1 [Tolazamide] | 601.655 | -0.681 | – | –
46 | Cc1cccc(N(C)C(=S)Oc2ccc3ccccc3c2)c1 [Tolnaftate] | 550.781 | 6.72 | – | –
47 | CNCC[C@@H](Oc1ccccc1C)c1ccccc1 [Tomoxetine hydrochloride] | 493.908 | 3.106 | – | –
48 | CN(C)CCOc1ccc(/C(=C(/CCCl)c2ccccc2)c2ccccc2)cc1 [Toremifene] | 537.181 | 0.057 | – | –
49 | Cc1cccc(Nc2ccncc2S(=O)(=O)NC(=O)NC(C)C)c1 [Torsemide] | 467.226 | -1.122 | – | –
50 | CCCCNc1c(C(=O)OCC)c(C)nc2c1cnn2CC.Cl [Tracazolate hydrochloride] | – | -1.912 | 238.155 | –
51 | NC[C@H]1CC[C@H](C(=O)O)CC1 [Tranexamic acid] | – | 0.375 | 255.588 | –
52 | COc1ccc(/C=C/C(=O)Nc2ccccc2C(=O)O)cc1OC [Tranilast] | – | -4.178 | 106.883 | –
